Measured values: PubChem BioAssay AID588373 (NMMLSC, 2011)

Biological target: Cell division control protein 42 homolog (Homo sapiens) (UniProt P60953)
Test: Cdc42 activated mutant GTP-binding inhibitors, SAR follow-up, biochemical, probe extension, bead-based multiplex flow cytometry, round 1 (AID 588373)
Conditions: Bodipy-FL-GTP binding, EDTA

Chain of Cell division control protein 42 homolog (Homo sapiens) (P60953 whole entry, looked up): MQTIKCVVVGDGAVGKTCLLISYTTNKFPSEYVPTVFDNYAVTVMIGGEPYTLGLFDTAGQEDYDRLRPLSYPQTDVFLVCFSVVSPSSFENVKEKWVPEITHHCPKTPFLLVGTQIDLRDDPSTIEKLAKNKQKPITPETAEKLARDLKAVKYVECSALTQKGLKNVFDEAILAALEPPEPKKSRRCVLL

Row | Structure (SMILES) | EC50 [nM]
1 | NS(=O)(=O)c1ccc(N2N=C(c3ccccc3)CC2c2ccccc2)cc1 (stereo not drawn) | 6140
2 | O=C(C#Cc1ccccc1)c1cccc([N+](=O)[O-])c1 | 368
3 | COc1ccc(C2CC(c3ccccc3)=NN2c2ccc(S(N)(=O)=O)cc2)cc1 (stereo not drawn) | 1890
